Test results: ChEMBL document CHEMBL2074082, “Characterization of the monocarboxylate transporter 1 expressed in Xenopus laevis oocytes by changes in cytosolic pH” (Biochem J, 1998)

Tests used:
[1] = molecular target: T1, Monocarboxylate transporter 1 (Rattus norvegicus) (UniProt P53987); experiment: TP_TRANSPORTER: change in intracellular pH(pHi)value in Xenopus laevis oocytes; assay type: functional, cell-based; details: Oocyte
T1 sequence (whole entry): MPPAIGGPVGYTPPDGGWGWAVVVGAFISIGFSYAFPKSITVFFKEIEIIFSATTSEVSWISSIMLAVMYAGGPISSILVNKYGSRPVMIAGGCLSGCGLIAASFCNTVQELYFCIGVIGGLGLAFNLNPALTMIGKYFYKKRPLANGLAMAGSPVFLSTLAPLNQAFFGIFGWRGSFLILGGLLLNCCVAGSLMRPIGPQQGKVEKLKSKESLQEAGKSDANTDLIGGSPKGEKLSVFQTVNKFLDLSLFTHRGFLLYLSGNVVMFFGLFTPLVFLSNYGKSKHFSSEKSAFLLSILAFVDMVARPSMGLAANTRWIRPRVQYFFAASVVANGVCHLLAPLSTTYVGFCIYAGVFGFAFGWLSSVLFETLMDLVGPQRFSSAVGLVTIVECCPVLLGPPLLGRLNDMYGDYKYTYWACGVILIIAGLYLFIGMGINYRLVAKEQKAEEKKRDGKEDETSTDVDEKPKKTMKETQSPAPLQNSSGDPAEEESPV

[2] = molecular target: T1, Monocarboxylate transporter 1 (Rattus norvegicus); experiment: TP_TRANSPORTER: inhibition of lactate uptake(pHi charge) in Xenopus laevis oocytes; assay type: functional, cell-based; details: Oocyte

CC(O)CC(=O)O (racemic)
Activity [1]: substrate [+]

CC(=O)CC(=O)O
Activity [1]: substrate [+]

N#C/C(=C\c1ccc(O)cc1)C(=O)O
Activity [2]: inhibitor [+]
